We go through 33 molecules from article PMC6017028 (Molecules : A Journal of Synthetic Chemistry and Natural …, 2018).

One data set addresses T1, human URAT1 (Homo sapiens, UniProt Q96S37).
T1 sequence (Q96S37 1-553): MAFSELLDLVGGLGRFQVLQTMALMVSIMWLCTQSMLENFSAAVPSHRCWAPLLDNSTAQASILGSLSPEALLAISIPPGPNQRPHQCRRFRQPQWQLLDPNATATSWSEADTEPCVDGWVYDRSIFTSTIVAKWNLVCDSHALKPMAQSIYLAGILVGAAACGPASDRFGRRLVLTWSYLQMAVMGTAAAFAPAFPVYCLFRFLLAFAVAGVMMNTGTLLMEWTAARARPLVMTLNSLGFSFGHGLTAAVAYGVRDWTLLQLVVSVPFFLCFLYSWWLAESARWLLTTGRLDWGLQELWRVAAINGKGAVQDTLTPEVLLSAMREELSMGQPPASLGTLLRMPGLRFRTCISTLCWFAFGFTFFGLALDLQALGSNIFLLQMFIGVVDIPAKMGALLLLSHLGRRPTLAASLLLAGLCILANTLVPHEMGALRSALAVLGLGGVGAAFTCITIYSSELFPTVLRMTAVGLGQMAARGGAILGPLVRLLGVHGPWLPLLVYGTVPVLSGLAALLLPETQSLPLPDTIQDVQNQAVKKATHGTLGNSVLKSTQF
The conditions noted are these: for URAT1 inhibitory activity (in words): human URAT1, HEK293-URAT1 cells.

The mark [1] stands for this setting: ratio of IC50 values against human URAT1.

Procedure for human URAT1: After incubation for 48 h, when the HEK293-URAT1 cells and mock cells were grown to confluence, the cells were treated with 0.25% trypsin for 1–2 min. Thereafter, the digested cells were diluted to a density of 1.5 × 10^5/mL and seeded onto the 24-well cell culture plates at 1 mL/well for about 48 h. […] The HEK293-URAT1 cells were then washed rapidly three times with ice-cold HBSS (Cl^− free) and lysed with 0.1 M aqueous NaOH solution. After that, 500-μL aliquots of cell lysates were transferred to scintillation vials and mixed with scintillation solution. The radioactivity in the cells was measured by a liquid scintillation counter (PerkinElmer, Waltham, MA, USA).

`CCn1c(Br)nnc1SCC(=O)O` [1a, Sodium 2-((5-bromo-4-ethyl-4H-1,2,4-triazol-3-yl)thio)acetate] came in with an IC50 on human URAT1 of 18.4 ± 3.36 µM. For `CCCn1c(Br)nnc1SCC(=O)O` [1b, Sodium 2-((5-bromo-4-n-propyl-4H-1,2,4-triazol-3-yl)thio)acetate], on human URAT1, the midpoint of inhibition, the IC50, lay at 4.83 ± 1.02 µM. Against the preceding molecule, the IC50 is about 3.8-fold lower. Take `O=C([O-])CSc1nnc(Br)n1CC1CCCCC1.[Na+]` [1c, Sodium 2-((5-bromo-4-(cyclohexylmethyl)-4H-1,2,4-triazol-3-yl)thio)acetate]: the melting point was 135 °C (dec.). Also, at human URAT1, the IC50 stood at 4.6 ± 0.88 µM. As to `O=C([O-])CSc1nnc(Br)n1CC12CC3CC(CC(C3)C1)C2.[Na+]` [1d, Sodium 2-((4-(1-adamantylmethyl)-5-bromo-4H-1,2,4-triazol-3-yl)thio)acetate], the melting point was 194 °C (dec.). At human URAT1, half-maximal inhibition (IC50) was put at 5.11 ± 0.79 µM.

Consider `O=C([O-])CSc1nnc(Br)n1Cc1ccccc1.[Na+]` [1e, Sodium 2-((4-benzyl-5-bromo-4H-1,2,4-triazol-3-yl)thio)acetate], for which the melting point was 119 to 121 °C. In addition, the IC50 at human URAT1 was determined as 2.98 ± 0.6 µM. In the same order, the values of `O=C([O-])CSc1nnc(Br)n1Cc1cccnc1.[Na+]` [1f, Sodium 2-((5-bromo-4-(3-pyridinylmethyl)-4H-1,2,4-triazol-3-yl)thio)acetate] are 109 to 111 °C and 14.2 ± 4.71 µM. `O=C([O-])CSc1nnc(Br)n1Cc1ccco1.[Na+]` [1g, Sodium 2-((5-bromo-4-(2-furanylmethyl)-4H-1,2,4-triazol-3-yl)thio)acetate] had a melting point of 108 to 111 °C. Also, the IC50 against human URAT1 came out at 4.54 ± 0.69 µM.

`O=C([O-])CSc1nnc(Br)n1Cc1cccs1.[Na+]` [1h, Sodium 2-((5-bromo-4-(2-thiophenylmethyl)-4H-1,2,4-triazol-3-yl)thio)acetate]: at human URAT1, it took 0.035 ± 0.01 µM to reach half-maximal inhibition (IC50). Also, on human URAT1 (setting [1]), the “fold more potent than benzbromarone” value was 8 fold and the “fold more potent than parent lesinurad” value was found to be 200 fold. Regarding `O=C([O-])CSc1nnc(Br)n1Cc1ccc(Cl)s1.[Na+]` [1ha, Sodium 2-((5-bromo-4-((5-chloro-2-thiophenyl)methyl)-4H-1,2,4-triazol-3-yl)thio)acetate], the melting point was 97 °C (dec.). Moreover, the midpoint of inhibition on human URAT1, the IC50, lay at 11.2 ± 2.36 µM. Turning to `Cc1ccc(Cn2c(Br)nnc2SCC(=O)[O-])s1.[Na+]` [1hb, Sodium 2-((5-bromo-4-((5-methyl-2-thiophenyl)methyl)-4H-1,2,4-triazol-3-yl)thio)acetate], the melting point was 157 °C (dec.). At human URAT1, this molecule gave an IC50 of over 50 µM.

The molecule `CCc1ccc(Cn2c(Br)nnc2SCC(=O)[O-])s1.[Na+]` [1hc, Sodium 2-((5-bromo-4-((5-ethyl-2-thiophenyl)methyl)-4H-1,2,4-triazol-3-yl)thio)acetate] registered a melting point of 178 to 180 °C. This molecule also gave an IC50 on human URAT1 of 7.98 ± 2.14 µM.

For `Cc1ccsc1Cn1c(Br)nnc1SCC(=O)[O-].[Na+]` [1hd, Sodium 2-((5-bromo-4-((3-methyl-2-thiophenyl)methyl)-4H-1,2,4-triazol-3-yl)thio)acetate], the melting point is 158 °C (dec.). The IC50 against human URAT1 came to 3.04 ± 0.84 µM. With `Cc1cc(Cn2c(Br)nnc2SCC(=O)[O-])sc1Br.[Na+]` [1he, Sodium 2-((5-bromo-4-((5-bromo-4-methyl-2-thiophenyl)methyl)-4H-1,2,4-triazol-3-yl)thio)acetate], the melting point was 87 °C (dec.). This molecule yielded an IC50 at human URAT1 of 6.1 ± 1.17 µM.

In turn, `O=C([O-])CSc1nnc(Br)n1Cc1ccsc1.[Na+]` [1hf, Sodium 2-((5-bromo-4-((3-thiophenyl)methyl)-4H-1,2,4-triazol-3-yl)thio)acetate] yielded a melting point of 124 to 126 °C. In addition, at human URAT1, the concentration for half-maximal inhibition (IC50) was over 50 µM and the “URAT1 inhibitory activity (in words)” value is “complete loss of URAT1 inhibitory activity”.

Regarding `O=C([O-])CSc1nnc(Br)n1Cc1ccc(-c2ccccc2)s1.[Na+]` [1hg, Sodium 2-((5-bromo-4-((5-phenyl-2-thiophenyl)methyl)-4H-1,2,4-triazol-3-yl)thio)acetate], the melting point is 212 °C (dec.). On human URAT1, this molecule returned an IC50 of 31.7 ± 9.34 µM. On to `O=C([O-])CSc1nnc(Br)n1Cc1sc2ccccc2c1Br.[Na+]` [1hh, Sodium 2-((5-bromo-4-((3-bromobenzo[b]thiophen-2-yl)methyl)-4H-1,2,4-triazol-3-yl)thio)acetate], for which the melting point is 99 °C (dec.). On human URAT1, this molecule registered an IC50 of 0.12 ± 0.03 µM. In the same order, the values of `O=C([O-])CSc1nnc(Br)n1Cc1cccc2c1sc1ccccc12.[Na+]` [1hi, Sodium 2-((5-bromo-4-((dibenzo[b,d]thiophen-4-yl)methyl)-4H-1,2,4-triazol-3-yl)thio)acetate] are 74 °C (dec.) and 18.5 ± 5.41 µM. As to `O=C([O-])CSc1nnc(Br)n1Cc1ccc(-c2ccccc2)cc1.[Na+]` [1i, Sodium 2-((4-(biphenyl-4-methyl)-5-bromo-4H-1,2,4-triazol-3-yl)thio)acetate], the melting point was in the range of 199 to 201 °C. Further, on human URAT1, the IC50 stood at 1.16 ± 0.34 µM.

In the case of `O=C([O-])CSc1nnc(Br)n1C(c1ccccc1)c1ccccc1.[Na+]` [1j, Sodium 2-((5-bromo-4-(diphenylmethyl)-4H-1,2,4-triazol-3-yl)thio)acetate], the melting point is 195 °C (dec.). At human URAT1, this molecule returned an IC50 of 1.15 ± 0.25 µM. In the case of `O=C([O-])CSc1nnc(Br)n1Cc1ccc2occc2c1.[Na+]` [1k, Sodium 2-((4-(benzo[b]furan-5-methyl)-5-bromo-4H-1,2,4-triazol-3-yl)thio)acetate], the melting point was 92 °C (dec.). The same molecule had an IC50 against human URAT1 of 2.61 ± 0.4 µM. Take `N#Cc1ccc(Cn2c(Br)nnc2SCC(=O)O)c2ccccc12` [1l, Sodium 2-((5-bromo-4-((4-cyano-1-naphthyl)methyl)-4H-1,2,4-triazol-3-yl)thio)acetate]: at human URAT1, the half-inhibitory concentration (IC50) was 3.8 ± 0.78 µM. Regarding `O=C([O-])CSc1nnc(Br)n1Cc1ccc2ccccc2c1.[Na+]` [1m, Sodium 2-((5-bromo-4-(2-naphthylmethyl)-4H-1,2,4-triazol-3-yl)thio)acetate], the melting point was 118 °C (dec.). Moreover, the IC50 against human URAT1 came to 4.66 ± 1.04 µM. As to `O=C([O-])CSc1nnc(Br)n1Cc1ccc2ncccc2c1.[Na+]` [1n, Sodium 2-((5-bromo-4-(quinoline-6-methyl)-4H-1,2,4-triazol-3-yl)thio)acetate], the melting point is 122 °C (dec.). In addition, the IC50 on human URAT1 is 1.36 ± 0.24 µM. `CC(C)(Sc1nnc(Br)n1Cc1ccc(C#N)c2ccccc12)C(=O)O` [1o] had an IC50 at human URAT1 of 1.96 ± 0.34 µM. Regarding `N#Cc1ccc(Cn2c(Br)nnc2SC2(C(=O)[O-])CCC2)c2ccccc12.[Na+]` [1p, Sodium 1-((5-bromo-4-((4-cyano-1-naphthyl)methyl)-4H-1,2,4-triazol-3-yl)thio)cyclobutanecarboxylate], the melting point was 136 °C (dec.). The half-inhibitory concentration (IC50) against human URAT1 amounted to 0.59 ± 0.17 µM. Consider `N#Cc1ccc(Cn2c(Br)cnc2SCC(=O)[O-])c2ccccc12.[Na+]` [1q, Sodium 2-((5-bromo-1-((4-cyano-1-naphthyl)methyl)-1H-imidazol-2-yl)thio)acetate], for which the melting point was 161 °C (dec.). Moreover, at human URAT1, the IC50 was 5.55 ± 0.98 µM. On to `CC(C)(Sc1ncc(Br)n1Cc1ccc(C#N)c2ccccc12)C(=O)[O-].[Na+]` [1r, Sodium 2-((5-bromo-1-((4-cyano-1-naphthyl)methyl)-1H-imidazol-2-yl)thio)-2-methylpropionate], for which the melting point was 243 °C (dec.). Also, on human URAT1, half-maximal inhibition (IC50) was put at 0.21 ± 0.07 µM. On the same counts, the results for `N#Cc1ccc(Cn2c(Br)cnc2SC2(C(=O)[O-])CCC2)c2ccccc12.[Na+]` [1s, Sodium 1-((5-bromo-1-((4-cyano-1-naphthyl)methyl)-1H-imidazol-2-yl)thio)cyclobutanecarboxylate] are 285 °C (dec.) and 0.48 ± 0.11 µM. `N#Cc1ccc(Cc2cnccc2SCC(=O)[O-])c2ccccc12.[Na+]` [1t, Sodium 2-((3-((4-cyano-1-naphthyl)methyl)pyridin-4-yl)thio)acetate]: the melting point is 268 °C (dec.). Besides, on human URAT1, the IC50 was 8.83 ± 1.02 µM.

The molecule `CC(C)(Sc1ccncc1Cc1ccc(C#N)c2ccccc12)C(=O)O` [1u, Sodium 2-((3-((4-cyano-1-naphthyl)methyl)pyridin-4-yl)thio)-2-methylpropionate] had a half-inhibitory concentration (IC50) on human URAT1 of 1.39 ± 0.42 µM.

As to `N#Cc1ccc(Cc2cnccc2SC2(C(=O)[O-])CCC2)c2ccccc12.[Na+]` [1v, Sodium 1-((3-((4-cyano-1-naphthyl)methyl)pyridin-4-yl)thio)cyclobutanecarboxylate], the melting point was 296 °C (dec.). At human URAT1, this molecule came in with an IC50 of 1.15 ± 0.2 µM. Consider `CC(C)(Sc1ncc(Br)n1Cc1cccs1)C(=O)[O-].[Na+]` [1w, Sodium 2-((5-bromo-1-((2-thiophenyl)methyl)-1H-imidazol-2-yl)thio)-2-methylpropionate], for which the melting point is 75 °C (dec.). For the same molecule, at human URAT1, the IC50 amounted to 17.4 ± 3.98 µM and the “URAT1 inhibitory activity (in words)” value is on record as “weak”. For `O=C([O-])C1(Sc2ncc(Br)n2Cc2cccs2)CCC1.[Na+]` [1x, Sodium 1-((5-bromo-1-((2-thiophenyl)methyl)-1H-imidazol-2-yl)thio)cyclobutanecarboxylate], the melting point is 210 °C (dec.). Also, at human URAT1, the IC50 is 0.32 ± 0.07 µM and the “URAT1 inhibitory activity (in words)” value was “highly potent”.
